We go through 21 molecules from patent US7951551B2, “Kits and reagents for luciferase detection assay system” (PerkinElmer Life and Analytical Sciences B.V., priority 2005, dated 2011).

Read-outs that look alike come from different tables or passages of the source.

Series [1] has as its target Photinus pyralis luciferase (Photinus pyralis, UniProt P08659). Particulars: compared to freshly prepared luciferase solution; 10% without DTT; cited from earlier work.
Series [2] addresses T1, luciferase (Photinus pyralis, UniProt P08659). The series is described as follows: Light yield of the luciferin-luciferase reaction (luciferase detection, TopCount luminescence, 0-420 min). It is filed as biochemical, firefly. As to conditions: for final concentration up to which light yield increases: with 0.25 M phosphate. The source says: A stock solution of 4.0 M Tris (source of ammonium ions) was neutralized with phosphoric acid (H3PO4) until a pH of 7.0 was reached. This stock buffer solution contained 2.0 M of phosphate. The stock solution was used to make a range of assay reagents comprising, respectively, 2.2, 1.1, 0.55, 0.275, 0.138, 0.069, 0.034 and 0.017 M Tris. The phosphate concentration in these assay reagents was […] phosphate, respectively.
Each reagent was checked for its pH to be 7.0 and was adjusted with small amounts of H3PO4 (several μl of a 2 M H3PO4 solution) if needed. The phosphate anions added in this manner had no significant effect on the above reported phosphate concentration. Each assay reagent was supplemented with D-luciferin, ATP and sodium-thiosulfate (Na2S2O3) by the addition of 250 μl of a freshly prepared stock solution (30 mM ATP, 3 mM D-luciferin, 100 mM thiosulfate adjusted to pH=7.0 with 1 M NaOH) to 2250 μl of assay reagent.
Luciferase was lyophilized in Dulbecco's-PBS with Mg and Ca (D'PBS^++) containing 0.05 g/ml trehalose and 0.016 g/ml BSA). Luciferase samples were prepared by reconstituting lyophilized luciferase in 200 μl water. The resulting solution was then diluted 100-fold by adding 150 μl of the reconstituted luciferase to 15 ml PBS (8.1 mM NaH2PO4, 1.5 mM KH2PO4, 2.7 mM KCl and 137 mM NaCl) containing 5 mM MgCl2, 5 mM CaCl2, 5 mM EDTA, 0.4% Thesit (a non-ionic detergent) and 0.1% bovine serum albumin (BSA). This yielded the “luciferase sample” solution which contained 27 ng/ml of luciferase.
The microplate was shaken for 10 seconds at 1100 rpm on a microplate-shaker and then immediately placed in a TopCount®-NXT Microplate Scintillation and Luminescence Counter. The resulting luminescent light signal was measured immediately after loading the microplate into the counter. The measurement was repeated after 5 and 10 minutes.
Final Tris concentrations in the different reaction mixtures were: 1.0, 0.5, 0.25, 0.125, 0.063, 0.031, 0.016 and 0.008 M. The phosphate concentrations were 0.5, 0.25, 0.125, 0.063, 0.031, 0.016, 0.008 and 0.004 M phosphate ions respectively. Final Mg^2+, D-luciferin, ATP, thiosulfate and luciferase concentrations in the reaction mixtures were 2.5 mM, 150 μM, 1.5 mM, 5 mM and 14 pg/μl, respectively.
FIG. 1 illustrates the effect of increasing Tris-phosphate concentrations in the luciferin-luciferase reaction mixture on the initial height and the decay of the light signal. To compare the total light yield (expressed as 10^9 counts) of each reaction mixture the areas under the curves were calculated by integrating the equations of the curves between 0 and 420 minutes. These equations of the curves were obtained using the option ‘trend line with equation’ of Microsoft Excel® software.
Stock solutions of 4.0 M ethanolamine (H2NCH2CH2OH) and 3.0 M ammonium-phosphate ((NH4)2HPO4) were neutralized with phosphoric acid (H3PO4) until pH 7.0 was reached. Dilutions were made in the same manner as described in example 1. Furthermore, all methods and other chemicals used to create the assay mixture and to test this for its light yield in a luciferin-luciferase reaction, were standardized and thus the same as in example 1. Final ethanolamine concentrations in the assay were 1.0, 0.5, 0.25, 0.125, 0.063, 0.031, 0.016 and 0.008 M, and 0.5, 0.25, 0.125, 0.063, 0.031, 0.016, 0.008 and 0.004 M phosphate, respectively. According to the present invention, a final concentration of 1M ethanolamine is assumed to provide the aqueous, neutral reaction mixture with 1M of ammonium ions. Thus, the concentration of ammonium ions in the reaction mixture is regarded to be identical to that of the source of ammonium ions. […]
Quantification of the reaction kinetics through surface area calculation under the curves is shown in Table 4 (ethanolamine-phosphate dilutions) and Table 5 (for ammonium-phosphate dilutions). […]
Target sequence in this assay (P08659 whole entry): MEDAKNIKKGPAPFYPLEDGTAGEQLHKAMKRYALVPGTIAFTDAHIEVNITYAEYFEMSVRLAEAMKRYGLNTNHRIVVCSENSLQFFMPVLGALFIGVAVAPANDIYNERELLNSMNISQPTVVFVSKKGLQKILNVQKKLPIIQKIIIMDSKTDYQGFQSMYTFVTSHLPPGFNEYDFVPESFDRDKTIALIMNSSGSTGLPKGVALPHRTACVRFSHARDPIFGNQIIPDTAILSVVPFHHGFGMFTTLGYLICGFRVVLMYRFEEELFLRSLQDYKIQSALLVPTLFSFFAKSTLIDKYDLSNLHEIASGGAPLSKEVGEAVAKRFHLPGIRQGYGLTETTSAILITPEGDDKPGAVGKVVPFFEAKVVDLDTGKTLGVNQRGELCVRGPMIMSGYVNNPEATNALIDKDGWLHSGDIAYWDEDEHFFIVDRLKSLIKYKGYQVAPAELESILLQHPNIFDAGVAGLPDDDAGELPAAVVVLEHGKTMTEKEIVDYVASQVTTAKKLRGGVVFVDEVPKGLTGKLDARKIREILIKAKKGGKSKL

The conditions of series [3]: cited from earlier work; for pKa (D/° C.): temperature coefficient of pKa, in brackets.
Series [4] has as its target T1, luciferase. Particulars: CoA in the assay reagent (U.S. Pat. No. 5,283,179); cited from earlier work.
Target sequence in this assay (P08659 whole entry): as above
The target in series [5] is T1, luciferase. As to the kind of experiment: Light yield of the luciferin-luciferase reaction (luciferase detection, TopCount luminescence, 0-420 min). Type of series: biochemical, firefly. As to conditions: 0.5 mM reducing agent, 0.5 M Tris and 0.25 M phosphate.
Target sequence in this assay (P08659 whole entry): as above
The conditions of series [6]: cited from earlier work.
The target of series [7] is T1, luciferase. Set-up: host or cells: eukaryotic cells (unspecified). Particulars: 1% detergent, chemical lysis of eukaryotic cells; cited from earlier work.
Target sequence in this assay (P08659 whole entry, species assumed): as the sequence (P08659 whole entry) above
The target in series [8] is T1, luciferase. As to conditions: ATP assay, higher Tris-phosphate ion concentrations, integral 1-420 minutes.
Target sequence in this assay (P08659 whole entry): as above
Experimental: (§1) For this experiment 16 different reagent mixtures were prepared; 8 mixtures (for the ATP assay) contained a large amount of luciferase, a small amount of ATP and increasing Tris-phosphate concentrations and 8 mixtures (for the luciferase assay) contained a large amount of ATP, a small amount of luciferase and increasing amounts of Tris-phosphate. To reduce variances that might be introduced by small concentrations differences between the reagents, all reagents were made from the same stock solutions where possible.
An “ATP sample” was prepared by diluting a reconstituted lyophilized ATP standard (PerkinElmer Inc.) in D'PBS^++ resulting in a 1.0×10^−8 mM ATP solution.
(§2) Likewise, in the same microplate the reaction kinetics when assaying for luciferase were measured by pipetting 100 μl of each Tris-phosphate concentration reagent with ATP, and adding 100 μl of “luciferase sample”.
(§3) The microplate was shaken for 10 seconds on a microplate-shaker and sealed with TopSeal-A™ (PerkinElmer Inc.). […] The luminescent light signal was immediately measured, meaning about 1 minute after mixing reagent and sample, and after 5 and 10 minutes. Hereafter the signal was measured repeatedly with 15 minute intervals to a total time of 420 minutes. […] The emitted light was quantified as counts per second (cps), count time 3 seconds per well.
For series [9], the target named is T1, luciferase. As to conditions: luciferase assay, up to 100 mM Tris-phosphate, integral 1-420 minutes.
Target sequence in this assay (P08659 whole entry): as above
Experimental: as §1
A “luciferase sample” was prepared by reconstituting a lyophilized luciferase control sample (PerkinElmer Inc.) in H2O and diluting this in Dulbecco's PBS with Ca/Mg (D'PBS^++) to a 1.0×10^−7 g/l luciferase solution.
as §2, §3
Where [10] appears, read: 5 mM reducing agent, 0.5 M Tris and 0.25 M phosphate.

Photinus pyralis luciferase, sequence (P08659 whole entry): as above

Consider `O[C@H](CS)[C@H](O)CS` (racemic) [DTT, dithiothreitol], for which, in series [1], the “luciferase activity maintained in aged luciferase solution” value is listed as 50%. Besides, the “Light Yield” value on luciferase [2] (setting [10]) is reported as 167.5 10^9counts.
Usually pKa stands for the negative logarithm of the acid dissociation constant. `NC(=O)CNCCS(=O)(=O)O` [ACES, N-(2-acetamido)-2-aminoethanesufonic acid]: in series [3], the “pKa at 20° C.” value is recorded as 6.88 and the “pKa (D/° C.)” value was −0.020 D/° C.
`NC(=O)CN(CC(=O)O)CC(=O)O` [ADA, N-(2-acetamido)iminodiacetic acid]: the “pKa (D/° C.)” value in [3] is −0.011 D/° C.
On to `N.N.N.O=P(O)(O)O` [Ammonium, ammonium-phosphate], for which the “Light Yield” value is listed as 31.8 10^9counts at luciferase [2] (0.016 M ammonium, […] phosphate, pH 7.0, 28 mM MOPS); 43.7 10^9counts on luciferase [2] (0.031 M ammonium, 0.021 M phosphate, pH 7.0, 28 mM MOPS); 69.3 10^9counts on luciferase [2] (0.063 M ammonium, 0.043 M phosphate, pH 7.0, 28 mM MOPS); 83.2 10^9counts on luciferase [2] (0.125 M ammonium, 0.088 M phosphate, pH 7.0, 28 mM MOPS); 88.9 10^9counts on luciferase [2] (0.25 M ammonium, 0.175 M phosphate, pH 7.0, 28 mM MOPS); 113.1 10^9counts on luciferase [2] (0.5 M ammonium, 0.35 M phosphate, pH 7.0, 28 mM MOPS). For the same molecule, the “Light Yield” value on luciferase [2] (1.0 M ammonium, 0.7 M phosphate, pH 7.0, 28 mM MOPS) was 80.7 10^9counts; on luciferase [2] (2.0 M ammonium, 1.4 M phosphate, pH 7.0, 28 mM MOPS) it was 44.6 10^9counts. Besides, at luciferase [2] (with 350 mM of phosphate), the “concentration up to which light yield increases” value came to 500 mM.
Take `O=S(=O)(O)CCN(CCO)CCO` [BES, N,N-bis(2-hydroxyethyl)-2-aminoethanesulfonic acid]: the “pKa (D/° C.)” value in series [3] is listed as “(−0.016) D/° C”.
Turning to `O=C(O)CN(CCO)CCO` [Bicine, N,N-bis(2-hydroxyethyl)glycine], the “pKa (D/° C.)” value in [3] is reported as “(−0.018) D/° C”.
As for `O=S(=O)(O)CCCNC1CCCCC1` [CAPS, 3-(cyclohexylamino)-1-propanesulfonic acid], in series [3], the “pKa (D/° C.)” value is “(0.032) D/° C”.
For the molecule `O=S(=O)(O)CCNC1CCCCC1` [CHES, 2-(cyclohexylamino)-1-ethanesulfonic acid], in [3], the “pKa at 20° C.” value was 9.55 and the “pKa (D/° C.)” value was “(−0.011) D/° C”.
For `CC(C)(COP(=O)(O)OP(=O)(O)OC[C@H]1O[C@@H](n2cnc3c(N)ncnc32)[C@H](O)[C@@H]1OP(=O)(O)O)[C@@H](O)C(=O)NCCC(=O)NCCS` [CoA, coenzyme A], the “time for which increased light output is maintained” value on luciferase [4] is “at least 60 seconds”.
`NCCO` [Ethanolamine, ethanolamine]: the “Light Yield” value on luciferase [2] (0.008 M ethanolamine, 0.004 M phosphate, pH 7.0) is 41.6 10^9counts; on luciferase [2] (0.016 M ethanolamine, 0.008 M phosphate, pH 7.0), 49.6 10^9counts; on luciferase [2] (0.031 M ethanolamine, 0.016 M phosphate, pH 7.0) it was 59.2 10^9counts; on luciferase [2] (0.063 M ethanolamine, 0.031 M phosphate, pH 7.0), 70.0 10^9counts; at luciferase [2] (0.125 M ethanolamine, 0.063 M phosphate, pH 7.0), 96.2 10^9counts; on luciferase [2] (0.25 M ethanolamine, 0.125 M phosphate, pH 7.0), 115.4 10^9counts. Also, the “Light Yield” value is reported as 124.8 10^9counts at luciferase [2] (0.5 M ethanolamine, 0.25 M phosphate, pH 7.0) and 99.0 10^9counts on luciferase [2] (1.0 M ethanolamine, 0.5 M phosphate, pH 7.0). Also, at luciferase [2], the “final concentration up to which light yield increases” value is 0.5 M.
On to `O=S(=O)(O)CCCN1CCN(CCO)CC1` [HEPPS (EPPS), 4-(2-hydroxyethyl)piperazine-1-propanesulfonic acid], for which the “pKa (D/° C.)” value in series [3] is −0.011 D/° C.
Regarding `O=S(=O)(O)CCCN1CCOCC1` [MOPS, 3-morpholinopropanesulfonic acid], the “pKa (D/° C.)” value in [3] is on record as −0.011 D/° C.
Turning to `O=S(O)(O)=S` [Na2S2O3, sodium-thiosulfate], the “Light Yield” value at luciferase [2] (setting [10]) is given as 147.7 10^9counts.
As to `O=S([O-])S(=O)[O-].[Na+].[Na+]` [Na2S2O4, sodium-dithionite], the “Light Yield” value on luciferase [5] was 128.4 10^9counts.
As for `O=S([O-])[O-].[Na+].[Na+]` [Na2SO3, sodium-sulfite], the “Light Yield” value on luciferase [2] (setting [10]) is on record as 136.8 10^9counts.
With `O=S(=O)(O)CCCNC(CO)(CO)CO` [TAPS, N-[tris(hydroxymethyl)methyl]-3-aminopropanesulfonic acid], the “pKa (D/° C.)” value in series [3] was “(0.018) D/° C”.
Turning to `O=C(O)CCP(CCC(=O)O)CCC(=O)O` [TCEP, Tris(2-carboxyethyl) phosphine], on luciferase [2] (setting [10]), the “Light Yield” value is reported as 122.1 10^9counts.
On to `O=C(O)CNC(CO)(CO)CO` [Tricine, N-[tris(hydroxymethyl)methyl]-glycine], for which the “pKa (D/° C.)” value in [3] is “(−0.021) D/° C”.
`CC(C)N` [isopropylamine]: the pKa in series [6] is on record as 10.82.
With Triton™ X-100, the “greater light output over simple freeze-thaw lysis” value at luciferase [7] is no more than 25 fold.
As to tris(hydroxymethyl)aminomethane, the entries for the “effect on total luminescence” value at luciferase [8] and on luciferase [9] were “inhibit total luminescence” and “enhances total luminescence”, respectively. Further, the “Light Yield” value at luciferase [2] (0.008 M Tris, 0.004 M phosphate, pH 7.0, 0-420 min) is 44.4 10^9counts; on luciferase [2] (0.016 M Tris, 0.008 M phosphate, pH 7.0, 0-420 min), 52.9 10^9counts; at luciferase [2] (0.031 M Tris, 0.016 M phosphate, pH 7.0, 0-420 min), 63.0 10^9counts; at luciferase [2] (0.063 M Tris, 0.031 M phosphate, pH 7.0, 0-420 min), 80.4 10^9counts; at luciferase [2] (0.125 M Tris, 0.063 M phosphate, pH 7.0, 0-420 min), 103.4 10^9counts; on luciferase [2] (0.25 M Tris, 0.125 M phosphate, pH 7.0, 0-420 min), 126.8 10^9counts. The “Light Yield” value at luciferase [2] (0.5 M Tris, 0.25 M phosphate, pH 7.0, 0-420 min) is recorded as 137.3 10^9counts; on luciferase [2] (1.0 M Tris, 0.5 M phosphate, pH 7.0, 0-420 min) it was 123.8 10^9counts. Also, on luciferase [2], the “final concentration up to which light yield increases” value is listed as 0.5 M.
